Here are results for one compound from patent US8598170B2, “Dual-acting oxazole antihypertensive agents” (Theravance, Inc., priority 2009, dated 2013).

Each structure is given as a SMILES string.

For assay [1], the target named is T1, NEP enzyme (Homo sapiens, UniProt P08473).
T1 construct: purchased R&D Systems, Minneapolis, Minn; 1182-ZN
Kind of assay: In vitro NEP enzyme inhibition assay (fluorogenic peptide substrate). The following applies: read-out: pIC50 for the NEP enzyme (converted). The class given is biochemical. As for the experimental part: The inhibitory activities of compounds at human and rat NEP and human ACE were determined using in vitro assays as described below.
Rat NEP was prepared from the kidneys of adult Sprague Dawley rats. Whole kidneys were washed in cold PBS and brought up in ice-cold lysis buffer (1% Triton X-114, 150 mM NaCl, 50 mM Tris pH 7.5; Bordier (1981) J. Biol. Chem. 256:1604-1607) in a ratio of 5 mL of buffer for every gram of kidney. Samples were homogenized using a polytron hand held tissue grinder on ice. Homogenates were centrifuged at 1000×g in a swinging bucket rotor for 5 minutes at 3° C. The pellet was resuspended in 20 mL of ice cold lysis buffer and incubated on ice for 30 minutes. […] Protein concentrations were quantitated using a BCA detection system with BSA as a standard. […]
The assays were performed in 384-well white opaque plates at room temperature using the respective fluorogenic peptides at a concentration of 10 μM in assay buffer (50 mM Tris/HCl at 25° C., 100 mM NaCl, 0.01% Tween-20, 1 μM Zn, 0.025% BSA). […] The rat NEP enzyme preparation was used at a concentration that yielded quantitative proteolysis of 3 μM of Mca-RRL within 20 minutes at room temperature. […]
Plates were read on a fluorometer with excitation and emission wavelengths set to 320 nm and 405 nm, respectively. […]

The target in assay [2] is T2, human AT1 receptor (Homo sapiens, UniProt P30556).
T2 construct: expressed in transfected cells; host or cells: CHO-K1
T2 sequence (P30556 1-359): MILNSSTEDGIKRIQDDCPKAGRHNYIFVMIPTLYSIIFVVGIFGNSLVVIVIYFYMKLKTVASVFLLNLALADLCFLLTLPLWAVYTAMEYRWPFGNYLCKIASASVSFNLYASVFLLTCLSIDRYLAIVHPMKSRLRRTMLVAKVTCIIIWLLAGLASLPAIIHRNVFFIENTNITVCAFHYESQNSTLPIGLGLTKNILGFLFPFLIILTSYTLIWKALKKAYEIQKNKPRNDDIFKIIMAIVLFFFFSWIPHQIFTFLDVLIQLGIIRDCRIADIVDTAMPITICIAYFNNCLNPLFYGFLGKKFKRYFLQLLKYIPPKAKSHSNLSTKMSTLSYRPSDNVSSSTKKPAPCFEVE
The assay is described as follows: AT1 radioligand binding assay ([Eu]AngII displacement, CHO-K1 membranes). The following applies: read-out: pKi at the AT1 receptor (converted). As for the experimental part: These in vitro assays were used to assess the ability of test compounds to bind to the AT1 and the AT2 receptors.
Chinese hamster ovary (CHO-K1) derived cell lines stably expressing the cloned human AT1 or AT2 receptors, respectively, were grown in HAM's-F 12 medium supplemented with 10% fetal bovine serum, 10 μg/ml penicillin/streptomycin, and […] in a 5% CO2 humidified incubator at 37° C. AT2 receptor expressing cells were grown in the additional presence of 100 nM PD123,319 (AT2 antagonist). When cultures reached 80-95% confluence, the cells were washed thoroughly in PBS and lifted with 5 mM EDTA. Cells were pelleted by centrifugation and snap frozen in MeOH-dry ice and stored at −80° C. until further use.
For membrane preparation, cell pellets were resuspended in lysis buffer (25 mM Tris/HCl pH 7.5 at 4° C., 1 mM EDTA, and one tablet of Complete Protease Inhibitor Cocktail Tablets with 2 mM EDTA per 50 mL buffer (Roche cat. #1697498, Roche Molecular Biochemicals, Indianapolis, Ind.)) and homogenized using a tight-fitting Dounce glass homogenizer (10 strokes) on ice. The homogenate was centrifuged at 1000×g, the supernatant was collected and centrifuged at 20,000×g. […] Protein concentration of the membrane suspension was determined by the method described in Bradford (1976) Anal Biochem. 72:248-54. […]

T1 sequence (P08473 52-750 limits assumed): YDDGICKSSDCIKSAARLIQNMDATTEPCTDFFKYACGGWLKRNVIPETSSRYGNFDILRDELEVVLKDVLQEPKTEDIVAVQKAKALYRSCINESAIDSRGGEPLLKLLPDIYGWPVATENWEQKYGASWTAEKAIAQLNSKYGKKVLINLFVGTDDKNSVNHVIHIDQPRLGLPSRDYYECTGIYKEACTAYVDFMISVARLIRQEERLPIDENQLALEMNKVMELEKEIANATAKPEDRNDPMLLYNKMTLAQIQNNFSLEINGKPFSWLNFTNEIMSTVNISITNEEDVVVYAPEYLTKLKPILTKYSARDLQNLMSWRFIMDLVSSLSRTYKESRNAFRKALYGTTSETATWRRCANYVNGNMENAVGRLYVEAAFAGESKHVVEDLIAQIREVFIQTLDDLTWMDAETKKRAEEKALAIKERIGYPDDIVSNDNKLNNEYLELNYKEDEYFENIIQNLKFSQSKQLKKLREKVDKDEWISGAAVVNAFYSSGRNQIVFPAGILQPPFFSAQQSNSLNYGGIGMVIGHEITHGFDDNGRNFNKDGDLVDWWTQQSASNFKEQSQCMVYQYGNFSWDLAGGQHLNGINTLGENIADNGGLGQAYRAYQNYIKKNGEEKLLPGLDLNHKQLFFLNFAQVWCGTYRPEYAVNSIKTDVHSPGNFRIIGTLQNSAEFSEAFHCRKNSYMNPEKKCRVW

Regarding `CCCc1oc(C(=O)N[C@H](Cc2ccccc2)[C@@H](O)C(=O)O)nc1Cc1ccc(-c2ccccc2-c2nnn[nH]2)cc1` [Example 1, (2R,3R)-2-Hydroxy-4-phenyl-3-({5-propyl-4-[2′-(1H-tetrazol-5-yl)-biphenyl-4-ylmethyl]-oxazole-2-carbonyl}amino)butyric Acid], in assay [1], the IC50 was below 1000 nM. Further, the Ki in assay [2] is below 31.6 nM.
